Patent US20250268884A1, “Deuterated Domperidone for Treating Gastroparesis” (CinDome Pharma, Inc., priority 2022, published 2025)

Tested on: adults with idiopathic or diabetic gastroparesis
Assay: Safety: adverse events, laboratory values, vital signs, Phase 2a
Settings: for Any Aes, % of subjects / Any Aes, n subjects / Any TEAEs by maximum severity: Mild, % of subjects / Any TEAEs by maximum severity: Mild, n subjects / Any TEAEs by maximum severity: Moderate, % of subjects / Any TEAEs by maximum severity: Moderate, n subjects / Any TEAEs by maximum severity: Severe, % of subjects / Any TEAEs by maximum severity: Severe, n subjects / Any TEAEs leading to death, % of subjects / Any TEAEs leading to death, n subjects / Any TEAEs leading to discontinuation, % of subjects / Any TEAEs leading to discontinuation, n subjects / Any TEAEs, % of subjects / Any TEAEs, e (number of events) / Any TEAEs, n subjects / Any serious TEAEs, % of subjects / Any serious TEAEs, n subjects / Any study drug-related TEAEs by maximum severity: Mild, % of subjects / Any study drug-related TEAEs by maximum severity: Mild, n subjects / Any study drug-related TEAEs by maximum severity: Moderate, % of subjects / Any study drug-related TEAEs by maximum severity: Moderate, n subjects / Any study drug-related TEAEs by maximum severity: Severe, % of subjects / Any study drug-related TEAEs by maximum severity: Severe, n subjects / Any study drug-related TEAEs leading to discontinuation, % of subjects / Any study drug-related TEAEs leading to discontinuation, n subjects / Any study drug-related TEAEs, % of subjects / Any study drug-related TEAEs, n subjects / Any study drug-related serious TEAEs, % of subjects / Any study drug-related serious TEAEs, n subjects / subjects who experienced a TEAE: Safety Population
Experimental: Safety was evaluated through assessments of Aes, vital signs, physical examinations, clinical laboratory evaluations (including prolactin), and ECG findings. Additionally, a single, optional PGx blood sample may have been collected at any time during the subject's participation in the study.
Safety variables included Aes, clinical laboratory results (including prolactin), vital signs, ECGs, and physical examination findings.

Compound: [2H]c1c([2H])c([2H])c2c([nH]c(=O)n2CCCN2CCC(n3c(=O)[nH]c4cc(Cl)ccc43)CC2)c1[2H] [Deudomperidone, 1-{3-[4-(5-chloro-2-oxo-2,3-dihydro-1H-1,3-benzodiazol-1-yl)piperidin-1yl]propyl}-2,3-dihydro(4,5,6,7-D4)-1H-1,3-benzodiazol-2-one]
- TEAE Nausea, % (10 mg BID (N = 30)): (3.3) %
- TEAE Nervous system disorders, % (10 mg BID (N = 30)): (0.0) %
- TEAE Palpitations, % (10 mg BID (N = 30)): (3.3) %
- TEAE Sinusitis, % (10 mg BID (N = 30)): (0.0) %
- TEAE Tinnitus, % (10 mg BID (N = 30)): (3.3) %
- TEAE Vomiting, % (10 mg BID (N = 30)): (3.3) %
- Any Aes, % of subjects (10 mg BID (N = 30)): (23.3) %
- Any Aes, n subjects (10 mg BID (N = 30)): 7
- Any TEAEs by maximum severity: Mild, % of subjects (10 mg BID (N = 30)): (10.0) %
- Any TEAEs by maximum severity: Mild, n subjects (10 mg BID (N = 30)): 3
- Any TEAEs by maximum severity: Moderate, % of subjects (10 mg BID (N = 30)): (6.7) %
- Any TEAEs by maximum severity: Moderate, n subjects (10 mg BID (N = 30)): 2
- Any TEAEs by maximum severity: Severe, % of subjects (10 mg BID (N = 30)): (3.3) %
- Any TEAEs by maximum severity: Severe, n subjects (10 mg BID (N = 30)): 1
- Any TEAEs leading to death, % of subjects (10 mg BID (N = 30)): (0.0) %
- Any TEAEs leading to death, n subjects (10 mg BID (N = 30)): 0
- Any TEAEs leading to discontinuation, % of subjects (10 mg BID (N = 30)): (0.0) %
- Any TEAEs leading to discontinuation, n subjects (10 mg BID (N = 30)): 0
- Any TEAEs, % of subjects (10 mg BID (N = 30)): 20.0%
- Any TEAEs, e (number of events) (10 mg BID (N = 30)): 11
- Any TEAEs, n subjects (10 mg BID (N = 30)): 6
- Any serious TEAEs, % of subjects (10 mg BID (N = 30)): (0.0) %
- Any serious TEAEs, n subjects (10 mg BID (N = 30)): 0
- Any study drug-related TEAEs by maximum severity: Mild, % of subjects (10 mg BID (N = 30)): (13.3) %
- Any study drug-related TEAEs by maximum severity: Mild, n subjects (10 mg BID (N = 30)): 4
- Any study drug-related TEAEs by maximum severity: Moderate, % of subjects (10 mg BID (N = 30)): (0.0) %
- Any study drug-related TEAEs by maximum severity: Moderate, n subjects (10 mg BID (N = 30)): 0
- Any study drug-related TEAEs by maximum severity: Severe, % of subjects (10 mg BID (N = 30)): (0.0) %
- Any study drug-related TEAEs by maximum severity: Severe, n subjects (10 mg BID (N = 30)): 0
- Any study drug-related TEAEs leading to discontinuation, % of subjects (10 mg BID (N = 30)): (0.0) %
- Any study drug-related TEAEs leading to discontinuation, n subjects (10 mg BID (N = 30)): 0
- Any study drug-related TEAEs, % of subjects (10 mg BID (N = 30)): (13.3) %
- Any study drug-related TEAEs, n subjects (10 mg BID (N = 30)): 4
- Any study drug-related serious TEAEs, % of subjects (10 mg BID (N = 30)): (0.0) %
- Any study drug-related serious TEAEs, n subjects (10 mg BID (N = 30)): 0
- subjects who experienced a TEAE (10 mg BID): 6 (20.0%) subjects (%)
- TEAE diarrhoea (20 mg QD): 1 (6.7%) subjects (%)
- TEAE electrocardiogram QT prolonged (20 mg QD): 2 (13.3%) subjects (%)
- TEAE hypoglycaemia (20 mg QD): 1 (6.7%) subjects (%)
- TEAEs reported (20 mg QD): 8 TEAEs
- other TEAEs, each: constipation, dyspepsia, sinusitis, headache (20 mg QD): 1 subject each
- other study drug-related TEAE: headache (20 mg QD): 1 subject each
- study drug-related TEAE diarrhoea (20 mg QD): 1 (6.7%) subjects (%)
- study drug-related TEAE electrocardiogram QT prolonged (20 mg QD): 2 (13.3%) subjects (%)
- study drug-related TEAEs reported (20 mg QD): 4 TEAEs
- subjects with study drug-related TEAEs (20 mg QD): 4 (26.7) subjects (%)
- Study drug-related TEAE Abdominal pain lower, % (20 mg QD (N = 15)): (0.0) %
- Study drug-related TEAE Blood creatine phosphokinase increased, % (20 mg QD (N = 15)): (0.0) %
- Study drug-related TEAE Cardiac disorders, % (20 mg QD (N = 15)): (0.0) %
- Study drug-related TEAE Diarrhoea, % (20 mg QD (N = 15)): (6.7) %
- Study drug-related TEAE Ear and labyrinth disorders, % (20 mg QD (N = 15)): (0.0) %
- Study drug-related TEAE Electrocardiogram QT prolonged, % (20 mg QD (N = 15)): (13.3) %
- Study drug-related TEAE Gastrointestinal disorders, % (20 mg QD (N = 15)): (6.7) %
- Study drug-related TEAE Headache, % (20 mg QD (N = 15)): (6.7) %
- Study drug-related TEAE Investigations, % (20 mg QD (N = 15)): (13.3) %
- Study drug-related TEAE Nausea, % (20 mg QD (N = 15)): (0.0) %
- Study drug-related TEAE Nervous system disorders, % (20 mg QD (N = 15)): (6.7) %
- Study drug-related TEAE Palpitations, % (20 mg QD (N = 15)): (0.0) %
- Study drug-related TEAE Tinnitus, % (20 mg QD (N = 15)): (0.0) %
- Subjects with any TEAEs, % (20 mg QD (N = 15)): 40.0%
- Subjects with any TEAEs, e (events) (20 mg QD (N = 15)): 8
- Subjects with any study drug-related TEAE, % (20 mg QD (N = 15)): 26.7%
- Subjects with any study drug-related TEAE, e (events) (20 mg QD (N = 15)): 4
- TEAE Abdominal pain lower, % (20 mg QD (N = 15)): (0.0) %
- TEAE Arthralgia, % (20 mg QD (N = 15)): (0.0) %
- TEAE Back pain, % (20 mg QD (N = 15)): (0.0) %
- TEAE Blood creatine phosphokinase increased, % (20 mg QD (N = 15)): (0.0) %
- TEAE Cardiac disorders, % (20 mg QD (N = 15)): (0.0) %
- TEAE Constipation, % (20 mg QD (N = 15)): (6.7) %
- TEAE Decreased appetite, % (20 mg QD (N = 15)): (0.0) %
- TEAE Diarrhoea, % (20 mg QD (N = 15)): (6.7) %
- TEAE Dyspepsia, % (20 mg QD (N = 15)): (6.7) %
- TEAE Ear and labyrinth disorders, % (20 mg QD (N = 15)): (0.0) %
- TEAE Electrocardiogram QT prolonged, % (20 mg QD (N = 15)): (13.3) %
- TEAE Gastrointestinal disorders, % (20 mg QD (N = 15)): (13.3) %
- TEAE Headache, % (20 mg QD (N = 15)): (6.7) %
- TEAE Hypoglycaemia, % (20 mg QD (N = 15)): (6.7) %
- TEAE Infections and infestations, % (20 mg QD (N = 15)): (6.7) %
- TEAE Investigations, % (20 mg QD (N = 15)): (13.3) %
- TEAE Metabolism and nutrition disorders, % (20 mg QD (N = 15)): (6.7) %
- TEAE Musculoskeletal and connective tissue disorders, % (20 mg QD (N = 15)): (0.0) %
- TEAE Nausea, % (20 mg QD (N = 15)): (0.0) %
- TEAE Nervous system disorders, % (20 mg QD (N = 15)): (6.7) %
- TEAE Palpitations, % (20 mg QD (N = 15)): (0.0) %
- TEAE Sinusitis, % (20 mg QD (N = 15)): (6.7) %
- TEAE Tinnitus, % (20 mg QD (N = 15)): (0.0) %
- TEAE Vomiting, % (20 mg QD (N = 15)): (0.0) %
- Any Aes, % of subjects (20 mg QD (N = 15)): (40.0) %
- Any Aes, n subjects (20 mg QD (N = 15)): 6
- Any TEAEs by maximum severity: Mild, % of subjects (20 mg QD (N = 15)): (40.0) %
- Any TEAEs by maximum severity: Mild, n subjects (20 mg QD (N = 15)): 6
- Any TEAEs by maximum severity: Moderate, % of subjects (20 mg QD (N = 15)): (0.0) %
- Any TEAEs by maximum severity: Moderate, n subjects (20 mg QD (N = 15)): 0
- Any TEAEs by maximum severity: Severe, % of subjects (20 mg QD (N = 15)): (0.0) %
- Any TEAEs by maximum severity: Severe, n subjects (20 mg QD (N = 15)): 0
- Any TEAEs leading to death, % of subjects (20 mg QD (N = 15)): (0.0) %
- Any TEAEs leading to death, n subjects (20 mg QD (N = 15)): 0
- Any TEAEs leading to discontinuation, % of subjects (20 mg QD (N = 15)): (0.0) %
- Any TEAEs leading to discontinuation, n subjects (20 mg QD (N = 15)): 0
- Any TEAEs, % of subjects (20 mg QD (N = 15)): 40.0%
- Any TEAEs, e (number of events) (20 mg QD (N = 15)): 8
- Any TEAEs, n subjects (20 mg QD (N = 15)): 6
- Any serious TEAEs, % of subjects (20 mg QD (N = 15)): (0.0) %
- Any serious TEAEs, n subjects (20 mg QD (N = 15)): 0
- Any study drug-related TEAEs by maximum severity: Mild, % of subjects (20 mg QD (N = 15)): (26.7) %
- Any study drug-related TEAEs by maximum severity: Mild, n subjects (20 mg QD (N = 15)): 4
- Any study drug-related TEAEs by maximum severity: Moderate, % of subjects (20 mg QD (N = 15)): (0.0) %
- Any study drug-related TEAEs by maximum severity: Moderate, n subjects (20 mg QD (N = 15)): 0
- Any study drug-related TEAEs by maximum severity: Severe, % of subjects (20 mg QD (N = 15)): (0.0) %
- Any study drug-related TEAEs by maximum severity: Severe, n subjects (20 mg QD (N = 15)): 0
- Any study drug-related TEAEs leading to discontinuation, % of subjects (20 mg QD (N = 15)): (0.0) %
- Any study drug-related TEAEs leading to discontinuation, n subjects (20 mg QD (N = 15)): 0
- Any study drug-related TEAEs, % of subjects (20 mg QD (N = 15)): (26.7) %
- Any study drug-related TEAEs, n subjects (20 mg QD (N = 15)): 4
- Any study drug-related serious TEAEs, % of subjects (20 mg QD (N = 15)): (0.0) %
- Any study drug-related serious TEAEs, n subjects (20 mg QD (N = 15)): 0
- subjects who experienced a TEAE (20 mg QD): 6 (40.0%) subjects (%)
- severity of study drug-related TEAEs (all dose groups): mild in severity
- deaths, serious TEAEs, discontinuations due to a TEAE (all dose groups, 14 days): no deaths, serious TEAEs, or discontinuations due to a TEAE
- changes from baseline in laboratory parameters (over treatment period): no meaningful changes from baseline
